Data published in patent publication US20110076258A1, “METHODS OF MODULATING T CELL- DEPENDENT IMMUNE RESPONSES” (Converge Biotech Inc., priority 2008, published 2011).

How the values were obtained:
[1] = system: INS-HA transgenic RAG-2^−/− mice; test: Diabetes by adoptive transfer of TCR-HA CD4 cells; format: in vivo, mouse
[2] = system: OVA-specific T cell clones; test: Calcium imaging of CD3 responsiveness after pre-stimulation (anergy); format: cell-based, mouse; details: pre-incubated 16 h
Description: NFAT nuclear translocation without concomitant MAPK activation, which can be obtained by ionomycin treatment, implements a transcriptional program leading to T cell anergy (Macian et al., Cell 109:719-731 (2002)). […] Then, we hypothesized that activation of T cells in the presence of oATP could induce T cell anergy. […] The effect of oATP was not due to altered turn-over of the TCR/CD3 complex at the cell surface, as determined by FACS analysis (data not shown).

human T cells = test: Proliferation of CFSE-loaded T cells, plate-bound anti-CD3/28 (FACS); format: cell-based; details: 100 μM oATP or 200 μM of PX10 peptide, four days
Experimental: Our results point to a role for pannexin hemichannels in ATP release in T cells. […] CFSE-loaded human T cells were stimulated with plate-bound anti-CD3/28 antibodies in the presence of 100 μM oATP or 200 μM of PX10 peptide. Four days later, the proliferation was measured by FACS analysis.

NFAT1 = NFAT1 nuclear localization after T cell stimulation; format: cell-based, mouse
Experimental: In order to distinguish between TCR dependent and independent ERK activation, TCR signaling was blocked at 30 min after CD3 activation with the tyrosine kinase inhibitor PP2, which inhibits TCR dependent Ick/fyn src-like kinase activity.
NFAT nuclear translocation without concomitant MAPK activation, which can be obtained by ionomycin treatment, implements a transcriptional program leading to T cell anergy (Macian et al., Cell 109:719-731 (2002)). […] Then, we hypothesized that activation of T cells in the presence of oATP could induce T cell anergy.

MAPK = test: Protracted MAPK (p38, Erk) activation after 16 h CD3 stimulation; format: cell-based, mouse; details: crt^−/− T cells, CD3 antibodies 16 h
DBA/1 mice = test: Collagen-induced arthritis model of rheumatoid arthritis; format: in vivo, mouse
mouse T cells = test: IL-2 secretion by ELISA; format: cell-based
mouse model of IBD = test: IBD model with insufficient number of adoptively transferred Treg cells; format: in vivo
NZB/NZW F1 mice = test: Systemic lupus erythematosus / glomerulonephritis model; format: in vivo, mouse
Experimental: Graph representing protein concentration in urine from NZB/NZW Fi mice treated either with PBS (control) or oATP. 25-week -old female mice received either PBS or oATP intravenously (3 mM in 100 μl, five days treatment, 2 days break) for 6 weeks (see Example 14). Ten animals received PBS and ten animals received oATP.
Twenty-five week-old NZB/NZW F1 female mice were injected intravenously with either PBS or oATP (3 mM in 100 μl, five days treatment, 2 days break) for six weeks and examined for proteinuria (upper panel) and other indicated parameters (lower panels) (see Example 14). **: P<0.01; ***: P<0.001.
Effector/memory (CD44^+CD62L^−) CD4^+ cells recovered from the spleen of 25 week-old NZB/NZW F1 female mice treated either with PBS or oATP (upper panel); IFN-γ and IL-4 secretion by CD4^+ effector/memory T cells stimulated with plate bound anti-CD3 and anti-CD28 antibodies for 48 h detected by ELISA (lower panels) (see Example 14). **: P<0.01; ***: P<0.001.
Systemic lupus erythematosus (SLE), or its mouse model NZB/NZW F1 (Andrews et al., J. Exp. Med. 148:1198-1215 (1978)), is a chronic inflammatory disease characterized by polyclonal B cell activation with subsequent hypergammaglobulinemia and organ injury caused by immune complex deposits. Because CD4^+ T cells play a crucial role in the onset and propagation of the disease, we analyzed whether oATP treatment might ameliorate disease symptoms. Female NZB/NZW F1 mice at 25 weeks old (when most animals display proteinuria) received either PBS or oATP intravenously (3 mM in 100 μl, five days treatment, 2 days break) for 6 weeks. The proteinuria values were measured before the first treatment and at regular intervals after three weeks of oATP administration. […] Restimulation of sorted effector/memory T cells led to lower levels of IL-4 and IFNγ secretion in cells derived from oATP treated animals (18. 16, lower panels).

naive CD4 T cells = test: T cell proliferation by CFSE dilution, plate-bound CD3 and CD28 mAbs; format: cell-based, mouse
[3] = system: naïve CD4 crt^−/− and crt^+/+ T cells; test: CD62L re-expression after activation with plate bound CD3 and CD28 antibodies (FACS); format: cell-based, mouse; details: crt^−/− and wild-type cells, 38 h
Experimental: FIG. 3: Mitochondrial Ca^2+ uptake during T cell activation leads to ATP synthesis and release. • a) ATP synthesis at different time points after T cell activation with CD3 antibodies in crt^−/− and crt^+/+ sorted naïve CD4^+ T cells (see Example 2). • b) ATP production upon T cell activation in the absence (control) or presence of the ATP synthetase inhibitor oligomycin. • c) FACS profile of CD62L expression on the surface of sorted naïve CD4 crt^−/− and crt^+/+ T cells at 38 h following activation with plate bound CD3 and CD28 antibodies. The same experiment was performed in the presence of oATP. • d) Naïve CD4^+ T cells were stained with the nucleotide binding compound quinacrine (see Example 2). The homogenous cytosolic staining indicates the absence of secretory vesicles containing ATP. • e) Subcellular fractionation of non-stimulated and activated naïve T cells on a continuous sucrose gradient (see Example 2). ATP was detected only in fractions containing also the cytosolic protein Zap-70 and not in those characterized by the small vesicular marker cellubrevin.
This shedding is thought to be inhibited by the P2X receptor antagonist oATP (Gu et al., Blood 92:946-951 (1998)). In vitro T cell activation of CD4 naïve T cells causes shedding of CD62L, which is progressively re-expressed following TCR triggering.

In the case of `Nc1ncnc2c1ncn2[C@@H](C=O)O[C@@H](C=O)COP(=O)(O)OP(=O)(O)OP(=O)(O)O` [oATP], the Blood glucose ([1]; day 12, twice daily i.v. and i.p. day 1 to 10) is reported as “normal”, the “CD69^+ cells in the pancreas” value ([1]; mouse, in vivo) is reported as “undetectable” and the “TCR-HA^+ cells in the pancreas” value ([1]; mouse, in vivo) is reported as “barely detectable”. For the same compound, the “TCR-HA^+ cells in the spleen” value ([1]; mouse, in vivo) was “significantly reduced”, the “pathological findings in the pancreas” value ([1]; mouse, in vivo) was “no relevant pathological findings” and the “IL-6, IFN-γ and TNF-α on a per-cell basis, ex vivo splenocytes pulsed with HA 110-120 peptide” value ([1]; versus PBS-treated control group) was “significant reduction”. The “cellular damage due to toxicity, PI staining versus untreated” value (crt^−/− CD4^+ T cells) was “did not reveal any difference”, the “responsiveness in calcium imaging of previously stimulated T cells” value [2] was “reduced responsiveness” and the T cell proliferation (human T cells) was “strongly inhibited”. For the same compound, the “nuclear localization of NFAT1” value (NFAT1) was “did not significantly affect”, the “prolonged activation of MAPK (p38 MAPK and Erk)” value (MAPK) was “almost completely abolished” and the “clinical score variation versus control group” value (DBA/1 mice; 3 mM in 100 μl i.v., after the initial five days of treatment) was “consistently lower”. The “collagen-specific antibodies (type II collagen ELISA)” value (DBA/1 mice; versus control mice) was “decreased”, the IL-2 secretion (mouse T cells) was “strongly inhibited” and the “Foxp3 expression in Treg cells” value (mouse model of IBD; day 28, daily 100 μl of 3 mM oATP i.v. from day 14) was “increased”. The bowel inflammation (mouse model of IBD; mouse, in vivo) was “no signs of bowel inflammation”, the “effector/memory T cells in mesenteric lymph nodes” value (mouse model of IBD; mouse, in vivo) was “reduced counts” and the “ratio of Treg/EM cells in mesenteric lymph nodes” value (mouse model of IBD; mouse, in vivo) was “not significantly changed”. For the same compound, the “spleen and mesenteric lymph nodes size” value (mouse model of IBD; mouse, in vivo) was “no increase”, the proteinuria levels (NZB/NZW F1 mice; 3 mM in 100 μl i.v., five days treatment, 2 days break, 6 weeks) was “remained similar to pre-treatment levels” and the “IL-4 and IFNγ secretion of restimulated sorted effector/memory T cells” value (NZB/NZW F1 mice; anti-CD3 and anti-CD28, 48 h, ELISA) was “lower levels”. The “Histopathological scoring of kidneys: glomerular proliferation, lymphomonocytic infiltration and immune complex deposition” value (NZB/NZW F1 mice; mouse, in vivo) was “significant reduction”, the “number of effector/memory T cells in spleen and lymph nodes” value (NZB/NZW F1 mice; mouse, in vivo) was “significantly reduced” and the “T cell proliferation (CFSE dilution)” value (naive CD4 T cells) was “almost completely inhibited”. For the same compound, the “CD62L re-expression after activation” value [3] was “enhanced and identical re-expression efficiency”.
